Assay results as given in ChEMBL document CHEMBL1138478, “Application of a proteolysis/mass spectrometry method for investigating the effects of inhibitors on hydroxylase structure” (J Med Chem, 2009).

Test: Inhibition of human recombinant PHD2 (181-426) expressed in Escherichia coli BL21 (DE3) by TR-FRET assay

SMILES: O=C(O)c1ccnc(C(=O)O)c1
- IC50: 1.91 µM

SMILES: O=C(O)/C=C/C(=O)O [FUMARIC ACID]
- IC50: 19.1 µM
